Measurements taken from patent publication US20210032345A1, “ANTI-PD-L1 ANTIBODIES, COMPOSITIONS AND ARTICLES OF MANUFACTURE” (Genentech, Inc., priority 2008, published 2021).
pEC50: −log10 of the molar value.

Target: PD-L1
Assay: FACS binding, rat
Conditions: half-maximal binding
Procedure: All samples were run on a […] FACSCalibur and Mean Fluorescence Intensity of PD-L1 binding data as a function of anti-PD-L1 antibody concentration was analyzed using Tree Star, Inc. FlowJo® software; EC50, values (Ab concentration associated with half-maximal binding) were calculated using Kaleidagraph. In addition, equilibrium binding studies were performed to define accurate affinities (Kds) for YW24355570 binding to human and mouse PD-L1 expressed on 293 cells (Example 3B).

“YW243.55.S70: affinity-matured phage anti-PD-L1 antibody derived from YW243.55, selected as the primary candidate; full length IgG1” was tested, and the pEC50 was 9.10.
